{
  "source": "patent US20070135515A1",
  "about": "“Method for producing sorbicillactone a” (priority 2004, published 2007)",
  "key": {"[1]": {"test_system": "L5178Y mouse-lymphoma cells (ATCC CRL 1722)", "assay": "Genotoxicity: Fast Microassay (strand scission factors, PicoGreen)", "assay_type": "cell-based", "method": "Material: PicoGreen was obtained from Molecular Probes (Leiden, The Netherlands), RPMI1640-medium from Sigma-Aldrich (Taufkirchen, Germany), foetal calf serum (FKS) from Gibco (Karlsruhe, Germany), and black microtitre-plates (96-well-plates) from Nunc (Wiesbaden, Germany). Sorbicillactone A of the batch: 2208/2a was used.\nCells: The genotoxicity of sorbicillactone A was tested on L5178Y mouse-lymphoma cells (ATCC CRL 1722). As described (Müller et al., 1979, Cancer Res. 39:1102-1107), the cells were cultured in RPMI1640-medium supplemented with 10% foetal calf serum (FCS). 10^4 cells/mL were chosen as the inoculum concentration. The cells were incubated for 4 and 24 hours with 1, 3, 10, and 30 μg/mL of sorbicillactone A (1). Following the incubation, the cells were examined with the “Fast Microassay”.\n“Fast Microassay”: The method was performed according to a modified method (Batel et al., 1999, Anal. Biochem., 270:195-200). The cells were washed with 1×PBS for two times. After centrifugation, the pellet was taken up in 1×PBS and diluted to […]. 25 μl each of the cell suspension (about 2.5×10^4 cells per well) were pre-pipetted into black microtitre-plates (96-well-plates, Nunc, Wiesbaden). 25 μl 1×PBS were in the controls. Then, 25 μl of lysis solution (7 M urea, 0.1% (w/v) SDS, 0.2 M EDTA, pH=10.0) with PicoGreen (20 μl conc. PicoGreen per 1 mL of lysis solution) were pipetted into the microtitre-plate. Subsequently, the cells were lysed for 40 min in the dark at room temperature. After the incubation, the denaturation (unwinding) of the DNA occurs by the addition of freshly prepared alkaline solution. This is produced in that 20 mL 20 mM of EDTA, and 32 mL of 20 mM EDTA/100 mM NaOH are adjusted to a pH-value of 12.3. The measurement took place immediately in a fluoroscan at an excitation wavelength of 485 nm, and an emission wavelength of 520 nm, every 3 to 5 min, 20 min in total. The results were given as “strand scission factors” (SSF), and calculated following a time of denaturation (time of unwinding) of 20 min according to the following equation: SSF=log (% dsDNA-sample/% dsDNA-control)."}, "[2]": {"test_system": "L5178Y-mouse lymphoma cells (ATCC CRL 1722)", "assay": "Apoptosis detection (Cell Death Detection ELISA plus)", "assay_type": "cell-based", "conditions": "for MW ± SD (OD) / % of the control (negative): 4 hours incubation; for MW ± SD (OD): 405 nm; for % of the control (negative): negative control = 100%", "method": "Material: RPMI1640-medium, Hepes buffered, was obtained from Sigma-Aldrich (Taufkirchen, Germany), foetal calf serum (FCS) from Gibco (Karlsruhe, Germany), and Cell Death Detection ELISA plus from Roche (Mannheim, Germany, Cat. No. 1774425). Sorbicillactone A of the batch: 2208/2a was used.\nIncubation and preparation of the cells: The L5178Y-mouse lymphoma cells (ATCC CRL 1722)) were counted, and adjusted to a number of cells of 10^4 cells/mL. The sorbicillactone-A- and dihydrosorbicillactone-A-stock solution (10 mg/mL in DMSO) was diluted with medium (RPMI/Hepes with 10% FCS) to concentrations of 60, 20, and 6 μg/mL. In a 96-well-culture plate, 100 μl cell suspension (˜10^3 cells) were each pipetted to each of the 100 μl of the different dihydrosorbicillactone-A- and sorbicillactone-A-solutions. RPMI1640-medium without dihydrosorbicillactone and sorbicillactone A was used as a negative control. The final concentrations were 30, 10, and 3 μg/mL sorbicillactone A and dihydrosorbicillactone A. Four parallel settings of each sample were analysed. The cells were incubated for 4 hours at 37° C. After the incubation, the culture plate was centrifuged at […] (˜1200 rpm) for 10 min at room temperature. The supernatant was carefully pipetted off, and the cells were each overlayered with 200 μl lysis-buffer (Roche-Kit). Then, the cells were lysed for 30 min at room temperature. After the lysis, the culture plate was again centrifuged at 200×g (˜1200 rpm) for 10 min at room temperature.\nELISA: Two strips with eight wells each were taken from the streptavidin-ELISA-plate of the Roche-kit. 20 μl of the supernatant of a cell-lysis (see above) were added into each well. In doing so, the samples with 30 or 10 μg/mL of sorbicillactone A and dihydrosorbicillactone A were loaded as 4-fold, and all other as duplicate determinations. In addition to these sample, a positive control (DNA-histone-complex) was loaded. Then, 80 μl of immune reagent were added into each well. This solution consisted of incubation buffer, anti-histone-biotin, and anti-DNA-peroxidase. The incubation buffer was used as a blank value. The ELISA-plate was incubated for 2 hours in a shaking incubator at room temperature. Them the supernatants were carefully removed, and the wells were each washed 3× with 250 μl of the incubation buffer. After the washing, 100 μl of ABTS-solution were added into each “well”. Subsequently, the cells were incubated for 30 min in the dark at room temperature. The measurement took place in a multiscan at an emission wavelength of 405 nm."}},
  "data": [
    {"smiles": "C/C=C/C=C/C(O)=C1/C(=O)C(C)=C(O)[C@@]2(C)OC(=O)[C@@](C)(NC(=O)/C=C/C(=O)O)[C@@H]12", "note": "[sorbicillactone A]", "values": [
      {"measurement": "induction of DNA-strand scissions", "setting": "[1]; 30 μg/mL, 24 hours of incubation", "value": "induced DNA-strand scissions"},
      {"measurement": "effect on the SSF-values (strand scission factors)", "setting": "[1]; 1, 3, 10, and 30 μg/mL, 4 hours of incubation, FIG. 3A", "value": "nearly no effect"},
      {"measurement": "increase of the SSF-values", "setting": "[1]; 1 to 10 μg/mL, 24 hours", "value": "slight, but no significant, increase"},
      {"measurement": "increase of the SSF-values (portion of DNA-strand scissions)", "setting": "[1]; 3 and 30 μg/mL, 24 hours, p<0.001, FIG. 3B", "value": "significant increase"},
      {"measurement": "MW ± SD (OD)", "setting": "[2]; 3 μg/mL", "value": "0.062 ± 0.004", "unit": "OD"},
      {"measurement": "% of the control (negative)", "setting": "[2]; 3 μg/mL", "value": 91.2, "unit": "%"},
      {"measurement": "increase of apoptosis-cells", "setting": "[2]; 3 μg/mL, 4 hours of incubation", "value": "did not result in an increase of apoptosis-cells"},
      {"measurement": "MW ± SD (OD)", "setting": "[2]; 10 μg/mL", "value": "0.193 ± 0.010", "unit": "OD"},
      {"measurement": "% of the control (negative)", "setting": "[2]; 10 μg/mL", "value": 283.8, "unit": "%"},
      {"measurement": "MW ± SD (OD)", "setting": "[2]; 30 μg/mL", "value": "0.219 ± 0.024", "unit": "OD"},
      {"measurement": "% of the control (negative)", "setting": "[2]; 30 μg/mL", "value": 322.1, "unit": "%"},
      {"measurement": "induction of apoptosis", "setting": "[2]; 10 and 30 μg/mL, 4 hours of incubation", "value": "induces apoptosis"}
    ]}
  ]
}
